Legend:
[1] = tested on: B6CBA-Tg(HDexon1)62Gpb/1J transgenic (R6/2) mice; assay: Locomotor activity test in transgenic mice model of Huntington's disease; type: in vivo; settings: average recorded results, 5 mg/kg i.p.
Protocol: B6CBA-Tg(HDexon1)62Gpb/1J transgenic (R6/2) mice are transgenic for the 5-end of the human HD gene carrying (CAG) 115-(CAG) 150 repeat expansions. […] These symptoms appear between 6 and 8 weeks of age. […] The mice had access to commercial mouse chow (mouse/rate breeding, ref. 9341 Provimi Kliba, Switzerland) and tap water. […] The mice were placed in a transparent plastic box of floor dimensions 30×30 cm in a room with low light intensity (maximum 20 lux). Locomotor activity was determined during a 10 minute period using a video image analyzer (Videotrack, View Point, Lyon, France). The number, distance and average speed of ambulatory movements were measured. The mice were returned to their home cages after testing. Group 1: hemizygote Transgenic B6CBA-Tg(HDexon 1)62Gpb/1J mice treated with vehicle i.p. once a day for 4 days (from day 0 to day 3) Group 2: hemizygote Transgenic B6CBA-Tg(HDexon 1)62Gpb/1J mice treated with 5 mg/kg i.p. of test item once a day for 4 days (from day 0 to day 3) […] • Test item administration • Simplified Irwin test, 40 min after administration • Locomotor activity test, immediately after the simplified Irwin test Simplified Irwin scores were analysed using non-parametric Mann-Whitney's U test. Locomotor activity data were analysed using Dunnett's t-test. Rotarod scores were analysed using the non-parametric Mann-Whitney's U-test. Statistical analyses were performed using the software Statview SE^+graphics software, Brain Power.

[2] = target: T1, catechol O-methyl transferase (COMT) (Homo sapiens, UniProt P21964); assay: COMT inhibition; type: biochemical
T1 sequence (P21964 1-271): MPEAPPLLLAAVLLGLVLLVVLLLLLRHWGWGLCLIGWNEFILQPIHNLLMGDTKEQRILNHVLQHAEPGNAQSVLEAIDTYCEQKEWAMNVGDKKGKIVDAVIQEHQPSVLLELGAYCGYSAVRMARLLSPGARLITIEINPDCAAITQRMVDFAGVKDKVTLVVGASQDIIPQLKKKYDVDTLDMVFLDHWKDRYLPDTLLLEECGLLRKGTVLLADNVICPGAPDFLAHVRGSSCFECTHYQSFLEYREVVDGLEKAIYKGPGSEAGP

[3] = target: T2, monoamine oxidase isoform A (Homo sapiens, UniProt P21397); assay: Monoamine oxidase A inhibition; type: biochemical
T2 sequence (P21397 1-527): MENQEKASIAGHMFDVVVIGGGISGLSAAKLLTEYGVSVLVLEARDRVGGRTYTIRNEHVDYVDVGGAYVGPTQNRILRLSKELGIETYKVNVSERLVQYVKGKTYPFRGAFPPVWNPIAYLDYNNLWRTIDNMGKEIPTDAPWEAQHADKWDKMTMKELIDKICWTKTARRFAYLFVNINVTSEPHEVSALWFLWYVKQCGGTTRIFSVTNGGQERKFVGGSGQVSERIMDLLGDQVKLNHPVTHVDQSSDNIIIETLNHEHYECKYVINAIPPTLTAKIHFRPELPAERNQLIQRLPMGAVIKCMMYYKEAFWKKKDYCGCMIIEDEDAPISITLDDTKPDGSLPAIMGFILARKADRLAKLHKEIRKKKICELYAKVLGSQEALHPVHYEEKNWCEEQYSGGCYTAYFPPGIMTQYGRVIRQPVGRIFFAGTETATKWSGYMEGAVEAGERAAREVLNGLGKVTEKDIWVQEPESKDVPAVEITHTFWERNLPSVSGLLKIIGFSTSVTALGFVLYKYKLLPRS

[4] = target: 5-hydroxytryptamine isoform 1b (Homo sapiens, UniProt P28222); assay: 5-hydroxytryptamine 1b inhibition; type: binding
Chain of 5-hydroxytryptamine isoform 1b (P28222 whole entry, canonical isoform): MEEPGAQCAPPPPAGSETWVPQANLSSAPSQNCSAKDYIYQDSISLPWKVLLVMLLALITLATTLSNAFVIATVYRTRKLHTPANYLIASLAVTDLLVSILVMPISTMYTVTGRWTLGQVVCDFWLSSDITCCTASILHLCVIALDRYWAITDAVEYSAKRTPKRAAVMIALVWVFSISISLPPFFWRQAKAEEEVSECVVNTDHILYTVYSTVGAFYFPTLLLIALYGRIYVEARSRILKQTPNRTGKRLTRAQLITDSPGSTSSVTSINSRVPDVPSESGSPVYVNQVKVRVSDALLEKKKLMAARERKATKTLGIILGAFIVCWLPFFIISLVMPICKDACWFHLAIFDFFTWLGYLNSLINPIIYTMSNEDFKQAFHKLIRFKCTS

[5] = target: Dopamine Transporter (DAT) (Homo sapiens, UniProt Q01959); assay: Dopamine Transporter (DAT) binding
Chain of Dopamine Transporter (DAT) (Q01959 whole entry, species assumed): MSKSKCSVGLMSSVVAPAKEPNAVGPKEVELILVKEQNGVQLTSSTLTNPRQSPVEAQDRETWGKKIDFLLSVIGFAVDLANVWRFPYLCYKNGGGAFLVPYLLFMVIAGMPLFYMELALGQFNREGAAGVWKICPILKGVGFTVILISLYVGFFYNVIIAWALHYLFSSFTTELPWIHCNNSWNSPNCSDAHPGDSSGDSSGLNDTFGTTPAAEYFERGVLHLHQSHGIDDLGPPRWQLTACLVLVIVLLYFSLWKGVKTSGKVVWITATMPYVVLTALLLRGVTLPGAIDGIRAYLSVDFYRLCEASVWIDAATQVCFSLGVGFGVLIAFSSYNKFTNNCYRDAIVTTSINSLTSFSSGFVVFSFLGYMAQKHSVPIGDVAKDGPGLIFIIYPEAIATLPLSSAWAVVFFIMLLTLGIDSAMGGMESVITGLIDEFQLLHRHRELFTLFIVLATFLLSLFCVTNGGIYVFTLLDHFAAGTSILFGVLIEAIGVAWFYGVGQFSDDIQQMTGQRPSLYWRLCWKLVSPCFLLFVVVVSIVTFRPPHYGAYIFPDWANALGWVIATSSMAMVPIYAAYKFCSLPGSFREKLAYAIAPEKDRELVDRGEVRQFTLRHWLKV

adrenergic receptors = assay: Adrenergic receptor inhibition; type: binding
[6] = target: serotonin transporter protein SERT (Homo sapiens, UniProt P31645); assay: Serotonin transporter SERT inhibition; type: binding
Chain of serotonin transporter protein SERT (P31645 whole entry): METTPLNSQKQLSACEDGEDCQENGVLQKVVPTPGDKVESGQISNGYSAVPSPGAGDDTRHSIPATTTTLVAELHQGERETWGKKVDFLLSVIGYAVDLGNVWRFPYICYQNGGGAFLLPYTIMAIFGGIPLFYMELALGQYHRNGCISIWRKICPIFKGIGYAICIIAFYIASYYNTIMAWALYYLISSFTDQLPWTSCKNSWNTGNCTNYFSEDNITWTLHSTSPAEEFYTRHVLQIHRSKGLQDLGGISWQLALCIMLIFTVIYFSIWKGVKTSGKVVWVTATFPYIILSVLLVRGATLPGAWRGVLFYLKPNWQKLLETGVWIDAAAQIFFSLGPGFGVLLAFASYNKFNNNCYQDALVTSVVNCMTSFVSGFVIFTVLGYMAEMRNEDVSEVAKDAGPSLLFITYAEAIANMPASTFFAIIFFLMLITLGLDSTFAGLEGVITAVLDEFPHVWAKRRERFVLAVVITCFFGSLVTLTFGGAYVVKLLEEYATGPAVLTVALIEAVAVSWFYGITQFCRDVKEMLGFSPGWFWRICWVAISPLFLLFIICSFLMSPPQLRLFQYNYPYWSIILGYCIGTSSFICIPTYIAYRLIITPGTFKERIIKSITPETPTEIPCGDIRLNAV

[7] = DAY 0, 40 mn after administration
[8] = DAY 2, 40 mn after administration

SMILES: COc1cc2c(cc1OC)[C@H]1C[C@H](O)[C@@H](CC(C)C)CN1CC2 (single isomer, unassigned) [Isomer B]
- Inactivity Duration [1, 7]: 184 ± 31 s
- Large movements Duration [1, 7]: 99 ± 13 s
- Large movements Occurence (number) [1, 7]: 280 ± 41 number
- Large movements Speed [1, 7]: 13.0 ± 0.5 cm/s
- Inactivity Duration ([1]; DAY 0, before administration): 149 ± 27 s
- Large movements Duration ([1]; DAY 0, before administration): 128 ± 16 s
- Large movements Occurence (number) ([1]; DAY 0, before administration): 309 ± 37 number
- Large movements Speed ([1]; DAY 0, before administration): 13.2 ± 0.5 cm/s
- Inactivity Duration [1, 8]: 134 ± 18 s
- Large movements Duration [1, 8]: 123 ± 14 s
- Large movements Occurence (number) [1, 8]: 322 ± 40 number
- Large movements Speed [1, 8]: 13.9 ± 0.7 cm/s
- Inactivity Duration ([1]; DAY 24): 67 ± 42 s
- Large movements Duration ([1]; DAY 24): 148 ± 34 s
- Large movements Occurence (number) ([1]; DAY 24): 818 ± 168 number
- Large movements Speed ([1]; DAY 24): 11.2 ± 0.9 cm/s
- inhibitory activity against catechol O-methyl transferase (COMT) [2]: no inhibitory activity
- inhibitory activity against monoamine oxidase isoform A [3]: no inhibitory activity
- inhibitory activity against 5-hydroxytryptamine isoform 1b [4]: no inhibitory activity
- Dopamine Transporter (DAT) binding activity [5]: lack Dopamine Transporter (DAT) binding activity
- inhibition of the adrenergic receptors (adrenergic receptors): either weakly active or inactive
- inhibition of the serotonin transporter protein SERT [6]: potent inhibitors

Reference: patent publication US20080319000A1, “Use of 3,1IB-Cis-Dihydrotetrabenazine for the Treatment of Symptoms of Huntingtons Disease” (CAMBRIDGE LABORATORIES (IRELAND) LIMITED, priority 2005, published 2008)
